The values that follow come from ChEMBL document CHEMBL1138939, “Privileged structure based ligands for melanocortin receptors--4,4-disubstituted piperidine derivatives” (Bioorg Med Chem Lett, 2006).

For the test, the target named is Melanocortin receptor 4 (Homo sapiens, UniProt P32245). Put plainly: Displacement of [125I]NDP-alpha-MSH from human MC4 receptor transfected in HEK293 cells. It is filed as cell-based. On the technique in general: Loss of bound radioactivity is the signal in a displacement assay; it reports binding, not function.
Chain of Melanocortin receptor 4 (P32245 whole entry): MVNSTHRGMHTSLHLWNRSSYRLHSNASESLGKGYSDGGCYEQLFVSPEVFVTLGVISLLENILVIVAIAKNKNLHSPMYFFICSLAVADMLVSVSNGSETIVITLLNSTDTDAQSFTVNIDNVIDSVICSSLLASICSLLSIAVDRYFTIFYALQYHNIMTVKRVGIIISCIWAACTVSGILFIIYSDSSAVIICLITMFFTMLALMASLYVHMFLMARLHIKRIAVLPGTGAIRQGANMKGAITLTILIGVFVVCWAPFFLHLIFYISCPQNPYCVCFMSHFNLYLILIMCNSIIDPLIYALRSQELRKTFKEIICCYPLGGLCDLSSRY

As usually defined, the Ki is the equilibrium dissociation constant of an inhibitor or competing ligand from its target. Low values mean tighter binding, high ones weaker binding. `CCC1(N2CCN(C(=O)[C@@H](Cc3ccc(Cl)cc3)NC(=O)CC3NCc4ccccc43)CC2)CCN(C)CC1` (some centres not stated) returned a Ki of 370 nM. The molecule `CC(C)CC1(N2CCN(C(=O)[C@@H](Cc3ccc(Cl)cc3)NC(=O)CC3NCc4ccccc43)CC2)CCN(C(=O)C(C)C)CC1` (some centres not stated) had a Ki of 101 nM. Against the preceding molecule, the Ki is about 3.7-fold lower. In the case of `CCCCCCC1(N2CCN(C(=O)[C@@H](Cc3ccc(Cl)cc3)NC(=O)CC3NCc4ccccc43)CC2)CCN(C)CC1` (some centres not stated) it was 69.6 nM. In the case of `CC(C)C1(N2CCN(C(=O)[C@@H](Cc3ccc(Cl)cc3)NC(=O)CC3NCc4ccccc43)CC2)CCN(C)CC1` (some centres not stated) it was 41.8 nM; in that of `CCN1CCC(CC(C)C)(N2CCN(C(=O)[C@@H](Cc3ccc(Cl)cc3)NC(=O)CC3NCc4ccccc43)CC2)CC1` (some centres not stated), 15.6 nM; in that of `CC(C)CC1(N2CCN(C(=O)[C@@H](Cc3ccc(Cl)cc3)NC(=O)CC3NCc4ccccc43)CC2)CCN(C(C)C)CC1` (some centres not stated), 12.9 nM. In the case of `CC(C)CC1(N2CCN(C(=O)[C@@H](Cc3ccc(Cl)cc3)NC(=O)CC3NCc4ccccc43)CC2)CCSCC1` (some centres not stated) it was 68.4 nM. In turn, `CC(C)CC1(N2CCN(C(=O)[C@@H](Cc3ccc(Cl)cc3)NC(=O)CC3NCc4ccccc43)CC2)CCS(=O)(=O)CC1` (some centres not stated) yielded a Ki of 75.8 nM. The value for `CN1CCC(CC2CCCCC2)(N2CCN(C(=O)[C@@H](Cc3ccc(Cl)cc3)NC(=O)CC3NCc4ccccc43)CC2)CC1` (some centres not stated) was 6.8 nM.

In the case of `CC(C)CC1(N2CCN(C(=O)[C@@H](Cc3ccc(Cl)cc3)NC(=O)CC3NCc4ccccc43)CC2)CCOCC1` (some centres not stated), the Ki is 31.4 nM. Against the preceding molecule, the Ki is about 4.6-fold higher.

For the molecule `CC(=O)N1CCC(CC(C)C)(N2CCN(C(=O)[C@@H](Cc3ccc(Cl)cc3)NC(=O)CC3NCc4ccccc43)CC2)CC1` (some centres not stated), the Ki was determined as 37.5 nM. In the case of `CC(C)CC1(N2CCN(C(=O)[C@@H](Cc3ccc(Cl)cc3)NC(=O)CC3NCc4ccccc43)CC2)CCN(S(C)(=O)=O)CC1` (some centres not stated) it was 27.3 nM.

`CC(C)CC1(N2CCN(C(=O)[C@@H](Cc3ccc(Cl)cc3)NC(=O)CC3NCc4ccccc43)CC2)CCCCC1` (some centres not stated) showed a Ki of 46.9 nM. In the case of `CN1CCC(c2ccccc2)(N2CCN(C(=O)[C@@H](Cc3ccc(Cl)cc3)NC(=O)CC3NCc4ccccc43)CC2)CC1` (some centres not stated) it was 215 nM; in that of `CC(C)CC1(N2CCN(C(=O)[C@@H](Cc3ccc(Cl)cc3)NC(=O)CC3NCc4ccccc43)CC2)CCN(C)CC1` (some centres not stated), 12.7 nM; in that of `CN1CCC(Cc2ccccc2)(N2CCN(C(=O)[C@@H](Cc3ccc(Cl)cc3)NC(=O)CC3NCc4ccccc43)CC2)CC1` (some centres not stated), 43.9 nM.

Molecule `CCN(CC)CC(CC1CCCCC1)N1CCN(C(=O)[C@@H](Cc2ccc(Cl)cc2)NC(=O)CC2NCc3ccccc32)CC1` (some centres not stated) returned a Ki of 5 nM.
